Series [1] deals with SARS-CoV-2 PL^pro (Severe acute respiratory syndrome coronavirus 2, UniProt P0DTD1). Nature of the series: PL^pro enzymatic inhibition assay (FRET-based, Z-RLRGG-AMC substrate). In kind it is biochemical. The following applies: for Kd: enzymatic inhibition assay, 25 °C, pH 7.5.
Series [2] has as its target SARS-CoV-2 M^pro (Severe acute respiratory syndrome coronavirus 2, UniProt P0DTD1). Nature of the series: biochemical. Type of series: biochemical.
The target of series [3] is PL^pro (Severe acute respiratory syndrome coronavirus 2, UniProt P0DTD1). In kind it is binding. The settings on record: no reducing agents; 1 h incubation at room temperature.
The mark [4] stands for this setting: Table 2 disulfide compounds, PL^pro dialyzed to avoid DTT.
Where [5] appears, read: Table 2 disulfide compounds, enzymatic inhibition assay, 25 °C, pH 7.5.
Setting [6] is: Table 1 thiazole series, uncertainty approx. 1.8-fold of Kd.

Read-outs that look alike come from different tables or passages of the source. Where only a bound is given, the exact number is not on record here.

In general, Kd refers to the concentration at which binding is half-saturated. Usually melting point stands for the temperature, or range, at which the solid turns liquid.

In the case of `O=C(O)CCNc1ccccc1SSc1ccccc1NCCC(=O)O` [Compound 33], the Kd in series [1] (setting [4]) is 2 µM; in series [2] (setting [5]) it was greater than 200 µM.
For `Cc1ccc(N(CCC(=O)O)c2nc(C)c(C(=O)C=Cc3ccc(Cl)cc3)s2)cc1` [Compound 25b], the values for the dissociation constant (Kd) in series [1] (setting [6]) and in series [2] were 66 µM and greater than 200 µM, respectively.
With `O=C(O)CCN(c1nc(-c2ccc(Cl)cc2)cs1)c1cccc2ccccc12` [Compound 6b], the values for the Kd in series [1] (setting [6]) and in series [2] were no less than 50 µM and greater than 200 µM, respectively.
As for `O=C(O)CCN(c1nc(-c2ccc([N+](=O)[O-])cc2)cs1)c1cccc2ccccc12` [Compound 6d], the Kd in series [1] (setting [6]) is 25 µM; in series [2] it was 26 µM.
As to `Nc1ccc(N(CCC(=O)O)c2nc(-c3ccc(C(F)(F)F)cc3)cs2)cc1` [Compound 30d], the equilibrium dissociation constant (Kd) is no less than 50 µM in series [1] (setting [6]) and greater than 200 µM in series [2].
For the compound `O=C(CNc1ccccc1SSc1ccccc1NCC(=O)c1ccccc1)c1ccccc1` [Compound 38], the results for the dissociation constant Kd in series [1] (setting [4]) and in series [2] (setting [5]) were 1.9 µM and greater than 200 µM, respectively.
Regarding `O=C(O)CCN(c1nc(-c2ccc(Br)cc2)cs1)c1cccc2ccccc12` [Compound 6a], the Kd in series [1] (setting [6]) is no less than 50 µM; in series [2] it was greater than 200 µM.
Take `Cc1nc(N(CCC(=O)O)c2cccc3ccccc23)sc1C(=O)O` [Compound 18]: the Kd in series [1] (setting [6]) is no less than 50 µM; in series [2], greater than 200 µM.
Turning to `Cc1ccc(N(CCC(=O)O)c2nc(-c3ccc(C#N)cc3)c(C=O)s2)cc1` [Compound 29], the Kd in series [1] (setting [6]) and in series [2] was greater than 200 µM each time.
`O=C(O)CCN(c1nc(-c2ccc3ccccc3c2)cs1)c1cccc2ccccc12` [Compound 8]: the results for the dissociation constant Kd in series [1] (setting [6]) and in series [2] were 35 µM and greater than 200 µM, respectively.
In the case of `O=C(O)CCN(c1nc(C(=O)/C=C/c2ccccc2)c(C(=O)/C=C/c2ccccc2)s1)c1cccc2ccccc12` [Compound 31], the equilibrium dissociation constant (Kd) in series [1] (setting [6]) and in series [2] was no less than 50 µM each time.
For `C/C(=N/N=C(/C)c1sc(N(CCC(=O)O)c2cccc3ccccc23)nc1C)c1sc(N(CCC(=O)O)c2cccc3ccccc23)nc1C` [Compound 24], the dissociation constant Kd in series [1] (setting [6]) is 8 µM; in series [2], greater than 200 µM.
With `Cc1ccc(C)n1NC(=O)CCNc1ccccc1SSc1ccccc1NCCC(=O)Nn1c(C)ccc1C` [Compound 36], the Kd in series [1] (setting [4]) is 1.9 µM; in series [2] (setting [5]), greater than 200 µM.
Consider `NNC(=O)CCNc1ccccc1SSc1ccccc1NCCC(=O)NN` [Compound 34], for which, in series [3], the “Covalent binding to PL^pro by mass spectrometry” value is “covalent binding of compound 34 to PLpro”. Moreover, the dissociation constant Kd in series [1] (setting [4]) stood at 0.43 µM; in series [2] (setting [5]) it was 3.5 µM. Moreover, the “Fold more potent for PL^pro than M^pro” value in series [1] (ratio of Kd values) is given as “eight times”.
As to `O=C(O)CCN(C1=NC(=O)CS1)c1cccc2ccccc12` [Compound 5], the Kd in series [1] (setting [6]) and in series [2] was greater than 200 µM throughout.
In the case of `Cc1nc(N(CCC(=O)O)c2cccc3ccccc23)sc1C(=O)/C=C/c1cccc2ccccc12` [Compound 22], the Kd in series [1] (setting [6]) turned out to be 5.2 µM; in series [2], 10 µM. In series [1] (vs compound 4), the “Fold stronger PL^pro affinity than compound 4” value is recorded as “more than 20 fold”.
`O=C(O)CCN(C1=NC(=O)C(=Cc2ccc(O)cc2O)S1)c1cccc2ccccc12` [Compound 14] gave a melting point of 205 to 206 °C. In series [1] (setting [6]), this compound registered a Kd of 9.2 µM. The Kd in series [2] is greater than 200 µM.
With `O=C(O)CCN(c1nc(CNc2ccccc2)cs1)c1cccc2ccccc12` [Compound 12], the figures for the dissociation constant (Kd) in series [1] (setting [6]) and in series [2] were 29 µM and greater than 200 µM, respectively.
`Cc1ccc(N(CCC(=O)O)c2nc(-c3ccc(C#N)cc3)c(/C=N\NC(N)=S)s2)cc1` [Compound 28]: the values for the dissociation constant (Kd) in series [1] (setting [6]) and in series [2] were 8.8 µM and no less than 50 µM, respectively.
`Cc1ccc(N(CCC(=O)O)c2nc(C)c(C(=O)C=Cc3ccccc3)s2)cc1` [Compound 25a]: the Kd in series [1] (setting [6]) is 83 µM; in series [2] it was greater than 200 µM.
As to `N#Cc1ccc(-c2csc(N(CCC(=O)O)c3ccc(N)cc3)n2)cc1` [Compound 30c], the Kd in series [1] (setting [6]) is 32 µM; in series [2], greater than 200 µM.
Consider `Cc1ccc(N(CCC(=O)O)c2nc(C)c(C(=O)C=Cc3ccc(F)cc3)s2)cc1` [Compound 25c], for which the Kd in series [1] (setting [6]) was 58 µM; in series [2], greater than 200 µM.
Turning to `C/C(=N/Nc1ccccc1)c1sc(N(CCC(=O)O)c2cccc3ccccc23)nc1C` [Compound 23], the results for the Kd in series [1] (setting [6]) and in series [2] were 75 µM and greater than 200 µM, respectively.
As to `NC(=S)N(CCC(=O)O)c1cccc2ccccc12` [Compound 2], the Kd in series [1] (setting [6]) is 29 µM; in series [2] it was greater than 200 µM. In addition, in series [1] (vs starting compound 1), the “Fold increase in PL^pro binding affinity compared to compound 1” value is 2 fold.
As for `O=C(O)CCN(C1=NC(=O)C(=Cc2ccc(Br)cc2)S1)c1cccc2ccccc12` [Compound 13a], the values for the Kd in series [1] (setting [6]) and in series [2] were 24 µM and 6.5 µM, respectively. Also, the “Fold more potent for M^pro inhibition than PL^pro” value in series [2] (ratio of Kd values) was 3.7 fold.
For the compound `O=C1CCN(c2ccccc2SSc2ccccc2N2CCC(=O)NC2=O)C(=O)N1` [Compound 37], the figures for the dissociation constant Kd in series [1] (setting [4]) and in series [2] (setting [5]) were 0.63 µM and greater than 200 µM, respectively.
On to `Cc1ccc(N(CCC(=O)O)c2nc(CNc3ccccc3)cs2)cc1` [Compound 26], for which, in series [1], the “Fold improvement of PL^pro affinity over compound 12” value was determined as 2 fold. Also, the dissociation constant Kd in series [1] (setting [6]) is 16 µM; in series [2], greater than 200 µM.
As for `CCOC(=O)c1sc(N(CCC(=O)O)c2cccc3ccccc23)nc1C` [Compound 20], the values for the Kd in series [1] (setting [6]) and in series [2] were 29 µM and greater than 200 µM, respectively.
In the same order, the values of `O=C(O)CCN(c1nccs1)c1cccc2ccccc12` [Compound 3, 3-[naphthalene-1-yl(1,3-thiazol-2-yl)amino]propanoic acid] are 14 µM and 25 µM.
For the compound `CCOC(=O)Cc1csc(N(CCC(=O)O)c2cccc3ccccc23)n1` [Compound 11], the equilibrium dissociation constant (Kd) in series [1] (setting [6]) and in series [2] was greater than 200 µM each time.
Take `Nc1ccc(N(CCC(=O)O)c2nc(-c3ccc(Cl)cc3)cs2)cc1` [Compound 30a]: the Kd was no less than 50 µM in series [1] (setting [6]) and greater than 200 µM in series [2].
Take `O=C(O)CCN(C1=NC(=O)C(=Cc2ccccc2O)S1)c1cccc2ccccc12` [Compound 15]: the melting point lay in the range of 203 to 204 °C. Besides, in series [1] (setting [6]), the equilibrium dissociation constant (Kd) was no less than 50 µM. In series [2], the Kd is greater than 200 µM.
Take `Cc1ccc(N(CCC(=O)O)c2nc(-c3ccc(C#N)cc3)c(/C=N\Nc3ccccc3)s2)cc1` [Compound 27c]: the Kd was 15 µM in series [1] (setting [6]) and greater than 200 µM in series [2].
Turning to `O=C(O)CCN(c1nc(-c2ccc(F)cc2)cs1)c1cccc2ccccc12` [Compound 6c], the results for the equilibrium dissociation constant (Kd) in series [1] (setting [6]) and in series [2] were no less than 50 µM and greater than 200 µM, respectively.
Consider `O=C(CCNc1ccccc1SSc1ccccc1NCCC(=O)N/N=C/c1cccs1)N/N=C/c1cccs1` [Compound 35], for which the Kd in series [1] (setting [4]) is 2.5 µM; in series [2] (setting [5]), greater than 200 µM.
In the case of `O=C(O)CCN(C1=NC(=O)C(=Cc2cccs2)S1)c1cccc2ccccc12` [Compound 16], the figures for the dissociation constant Kd in series [1] (setting [6]) and in series [2] were no less than 50 µM and greater than 200 µM, respectively.
Regarding `O=C(O)CCN(C1=NC(=O)C(=Cc2ccc(Cl)cc2)S1)c1cccc2ccccc12` [Compound 13b], the Kd in series [1] (setting [6]) was no less than 50 µM; in series [2], greater than 200 µM.
`Cc1nc(N(CCC(=O)O)c2cccc3ccccc23)sc1C(=O)/C=C/c1ccccc1` [Compound 21a]: the dissociation constant Kd in series [1] (setting [6]) is 110 µM; in series [2], greater than 200 µM.
In the case of `O=C(O)CCN(c1nc(-c2ccc(Cl)c(Cl)c2)cs1)c1cccc2ccccc12` [Compound 7], the dissociation constant (Kd) in series [1] (setting [6]) was no less than 50 µM; in series [2] it was greater than 200 µM.
With `Cc1nc(N(CCC(=O)O)c2cccc3ccccc23)sc1C(=O)/C=C/c1ccc(F)cc1` [Compound 21c], the “Fold improvement of PL^pro interaction in styryl ketone series” value in series [1] was “two times”. The dissociation constant (Kd) in series [1] (setting [6]) is 52 µM; in series [2], greater than 200 µM.
Regarding `O=C(O)CCNc1cccc2ccccc12` [Compound 1, 3-(naphtylamino]propanoic acid], the figures for the Kd in series [1] (setting [6]) and in series [2] were 68 µM and greater than 200 µM, respectively.
For `CC(=O)c1sc(N(CCC(=O)O)c2cccc3ccccc23)nc1C` [Compound 19], the equilibrium dissociation constant (Kd) in series [1] (setting [6]) is no less than 50 µM; in series [2], greater than 200 µM.
In the same order, the values of `N#Cc1ccc(-c2csc(N(CCC(=O)O)c3cccc4ccccc34)n2)cc1` [Compound 6e] are 20 µM and greater than 200 µM.
`O=C(O)CCN(c1nc(CO)cs1)c1cccc2ccccc12` [Compound 10]: the Kd in series [1] (setting [6]) was 35 µM; in series [2] it was greater than 200 µM.
In the same order, the values of `Cc1ccc(N(CCC(=O)O)c2nc(-c3ccc(Cl)cc3)c(/C=N\Nc3ccccc3)s2)cc1` [Compound 27a] are 35 µM and greater than 200 µM.
Regarding `O=C(O)CCN(c1nc(CCl)cs1)c1cccc2ccccc12` [Compound 9], the figures for the dissociation constant (Kd) in series [1] (setting [6]) and in series [2] were no less than 50 µM and greater than 200 µM, respectively.
Take `Cc1nc(N(CCC(=O)O)c2cccc3ccccc23)sc1C(=O)/C=C/c1ccc(Cl)cc1` [Compound 21b]: in series [1], the “Fold higher PL^pro affinity than compound 25b” value was 2 fold and the “Fold improvement of PL^pro interaction in styryl ketone series” value worked out at 4. Further, the Kd in series [1] (setting [6]) stood at 29 µM. For the same compound, the equilibrium dissociation constant (Kd) in series [2] came to 17 µM.
With `Nc1ccc(N(CCC(=O)O)c2nc(-c3ccc(F)cc3)cs2)cc1` [Compound 30b], the Kd in series [1] (setting [6]) was no less than 50 µM; in series [2], greater than 200 µM.
In the case of `O=C(O)CCN(C1=NC(=O)/C(=C/c2ccc(F)cc2)S1)c1cccc2ccccc12` [Compound 13c], the Kd in series [1] (setting [6]) and in series [2] was 8.6 µM in each case.
Consider `COC(=O)C=C1SC(N(CCC(=O)O)c2cccc3ccccc23)=NC1=O` [Compound 17], for which the Kd in series [1] (setting [6]) and in series [2] was greater than 200 µM throughout.
`Cc1ccc(N(CCC(=O)O)c2nc(-c3ccc(F)cc3)c(/C=N\Nc3ccccc3)s2)cc1` [Compound 27b]: the dissociation constant Kd in series [1] (setting [6]) was no less than 50 µM; in series [2], greater than 200 µM.
Consider `Cc1csc(N(CCC(=O)O)c2cccc3ccccc23)n1` [Compound 4], for which the dissociation constant Kd in series [1] (setting [6]) was 110 µM; in series [2] it was greater than 200 µM. In series [1] (vs parent compound 3), the “Fold weakening of PL^pro interaction compared to compound 3” value is 8 fold.

The record behind these values is PMC10488051, “Screening, Synthesis and Biochemical Characterization of SARS-CoV-2 Protease Inhibitors” (International Journal of Molecular Sciences, 2023).
